# Patent publication EP0373216A1, “CEPHALOSPORIN COMPOUNDS OR THEIR SALTS, PROCESS FOR THEIR PREPARATION, AND PARMACEUTICAL COMPOSITIONS” (TEIJIN LIMITED, priority 1987, dated 1988)
# Tests used:
# [1] = system: S. typhic 901; assay: In vitro antibacterial activity, agar disc dilution method; format: cell-based; settings: Mueller Hinton agar, 10^6/ml, 37°C for 16 hours, read-out: minimum growth inhibitory concentration (MIC)
# Protocol: (§1) An in vitro antibacterial activity was measured by an agar disc dilution method.
# (§2) Varied test bacteria were cultivated overnight in triptophane-soybroth. A Mueller Hinton agar containing the compound of this invention in varied concentrations was streaked with one platinum loopful of each of the bacteria (number of living cells 10^6/ml).
# [2] = system: P. aeruginosa NCTC 1049; assay: as above; format: cell-based; settings: Pseudomonas aeruginosa, NCTC1049; P. aeruginosa NCTC 1049; Mueller Hinton agar, 10^6/ml, 37°C for 16 hours; read-out: minimum growth inhibitory concentration (MIC)
# Protocol: as §1, §2
# [3] = system: E. coli K12C600; assay: as above; format: cell-based; settings: Escherichia coli; E. coli K12C600; Mueller Hinton agar, 10^6/ml, 37°C for 16 hours; read-out: minimum growth inhibitory concentration (MIC)
# Protocol: as §1, §2
# [4] = system: S. enteritidis G14; assay: as above; format: cell-based; settings: Salmonella enterica; S. enteritidis G14; Mueller Hinton agar, 10^6/ml, 37°C for 16 hours; read-out: minimum growth inhibitory concentration (MIC)
# Protocol: as §1, §2
# [5] = system: P. rettgeric IFO3850; assay: as above; format: cell-based; settings: P. rettgeric IFO3850; Mueller Hinton agar, 10^6/ml, 37°C for 16 hours; read-out: minimum growth inhibitory concentration (MIC)
# Protocol: as §1, §2
# [6] = system: B. subtilis ATCC 6633; assay: as above; format: cell-based; settings: Bacillus subtilis, ATCC6633; B. subtilis ATCC 6633; Mueller Hinton agar, 10^6/ml, 37°C for 16 hours; read-out: minimum growth inhibitory concentration (MIC)
# Protocol: as §1, §2
# [7] = system: S. marcescens I AM 1184; assay: as above; format: cell-based; settings: Serratia marcescens, IAM1184; S. marcescens I AM 1184; Mueller Hinton agar, 10^6/ml, 37°C for 16 hours; read-out: minimum growth inhibitory concentration (MIC)
# Protocol: as §1, §2
# [8] = system: M. euteus ATCC 9341; assay: as above; format: cell-based; settings: M. euteus ATCC 9341; Mueller Hinton agar, 10^6/ml, 37°C for 16 hours; read-out: minimum growth inhibitory concentration (MIC)
# Protocol: as §1, §2
# [9] = system: P. vulgalis OX-19; assay: as above; format: cell-based; settings: P. vulgalis OX-19; Mueller Hinton agar, 10^6/ml, 37°C for 16 hours; read-out: minimum growth inhibitory concentration (MIC)
# Protocol: as §1, §2
# [10] = system: S. pyogenes Cook; assay: as above; format: cell-based; settings: Streptococcus pyogenes; S. pyogenes Cook; Mueller Hinton agar, 10^6/ml, 37°C for 16 hours; read-out: minimum growth inhibitory concentration (MIC)
# Protocol: as §1, §2
# [11] = system: K. pneumoniae PC I 602; assay: as above; format: cell-based; settings: Klebsiella pneumoniae, PCI602; K. pneumoniae PC I 602; Mueller Hinton agar, 10^6/ml, 37°C for 16 hours; read-out: minimum growth inhibitory concentration (MIC)
# Protocol: as §1, §2
# [12] = system: E. cloacae 963; assay: as above; format: cell-based; settings: Enterobacter cloacae; E. cloacae 963; Mueller Hinton agar, 10^6/ml, 37°C for 16 hours; read-out: minimum growth inhibitory concentration (MIC)
# Protocol: as §1, §2
# [13] = system: P. morganii IFO 3445; assay: as above; format: cell-based; settings: Morganella morganii, IFO3445; P. morganii IFO 3445; Mueller Hinton agar, 10^6/ml, 37°C for 16 hours; read-out: minimum growth inhibitory concentration (MIC)
# Protocol: as §1, §2
# [14] = system: S. aureus Terajima; assay: as above; format: cell-based; settings: Staphylococcus aureus; S. aureus Terajima; Mueller Hinton agar, 10^6/ml, 37°C for 16 hours; read-out: minimum growth inhibitory concentration (MIC)
# Protocol: as §1, §2
# [15] = system: alkali phosphatase (derived from calf intestines); assay: Conversion by alkali phosphatase, analyzed by liquid chromatography; format: in vitro ADME; settings: 2 mg in 1 ml glycine buffer pH 7.0, 20U alkali phosphatase, 37°C for 1 hour, liquid chromatography RP-18, UV 260 nm
# Protocol: 2 mg of the captioned compound was dissolved in 1 ml of a glycine buffer having pH of 7.0, and 20U of commercial alkali phosphatase (derived from calf intestines) was charged. The solution was kept at 37°C for 1 hour, and then analyzed by liquid chromatography [column: RP-18, elution solvent: a water/methanol solvent mixture, detection: UV wavelength 260 nm].
SMILES,MIC [1] [µg/mL],MIC [2] [µg/mL],MIC [3] [µg/mL],MIC [4] [µg/mL],MIC [5] [µg/mL],MIC [6] [µg/mL],MIC [7] [µg/mL],MIC [8] [µg/mL],MIC [9] [µg/mL],MIC [10] [µg/mL],MIC [11] [µg/mL],MIC [12] [µg/mL],MIC [13] [µg/mL],MIC [14] [µg/mL],"Rf value of the main peak compared with the 6,7-dihydroxy-2-isoquinoliniummethyl compound (compound of Example 1) [15]"
"Nc1nc(/C(=N/Oc2ccccc2)C(=O)N[C@@H]2C(=O)N3C(C(=O)[O-])=C(C[n+]4ccc5cc(O)c(O)cc5c4)CS[C@H]23)ns1 [Compound XI, (6R,7R)-[(Z)-2(5-amino-1,2,4-thiadiazol-3-yl)-2-phenoxyiminoacetamide]-3-(6,7-dihydroxy-2-isoquinolinium)methyl-3-cephem-carboxylate]",< 0.01,0.2,0.01,< 0.01,< 0.01,0.4,< 0.01,0.01,< 0.01,0.05,< 0.01,< 0.01,< 0.01,0.2,
CC(=O)Oc1cc2cc[n+](CC3=C(C(=O)[O-])N4C(=O)[C@@H](NC(=O)/C(=N\Oc5ccccc5)c5csc(N)n5)[C@H]4SC3)cc2cc1O [Compound X],< 0.01,0.1,< 0.01,0.01,< 0.01,0.8,< 0.01,1.6,< 0.01,0.8,< 0.01,< 0.01,< 0.01,1.6,
"Nc1nc(/C(=N/Oc2ccccc2)C(=O)N[C@@H]2C(=O)N3C(C(=O)[O-])=C(C[n+]4ccc5cc(O)c(OS(=O)(=O)O)cc5c4)CS[C@H]23)cs1 [Example 6, (6R,7R)-7-[(Z)-2-(2-amino-1,3-thiazol-4-yl-2-phenoxyimino)acetamide]-3-(6,7-hydroxy-7-sulfonyloxy-2-isoquinolinium)methyl-3-cephem-4-carboxylate]",,,,,,,,,,,,,,,confirmed to agree
